# Measured values as given in patent US20170224679A1, “Use of CXCR2 Antagonists For The Prevention and/or Treatment of Chemotherapy Induced Peripheral Neuropathy (CIPN)” (GlaxoSmithKline Intellectual Property Development Limited, priority 2014, published 2017).
# Assays:
# Caco-2 cell line = assay: Colorectal cancer cell line proliferation assay, Caco-2; assay type: cell-based; details: Caco-2, compound alone 8.5 μM, non-significant
# Procedure: Cell proliferation assay: Cells were seeded in 96-well plates (Costar) at different cell densities: HCT116, 500 cells per well; Caco-2, 1000 cells per well. Total volume of the medium was 90 μl per well. Cells were incubated for 24 hours at 37° C. and 5% CO2 incubator.
# The cell proliferation rate was measured by adding 100 μl of CellTiter-Glo™ (Promega) according to the manufacturer's instructions. After 10 minutes of incubation, the cell lysates were transferred into OptiPlate-384 well, the luminescence was recorded by BioTek Synergy™ 4 Hybrid Microplate Reader with Gen5 software. All data points were generated in five replicates. Three independent experiments were performed.
# Data Analysis: pIC50 values were calculated by software GraphPad Prism 5 using sigmoidal concentration-response (variable slope). All data were presented as the mean±standard error of the mean determined from three independent experiments.
# Sprague-Dawley rats = assay: CXCR2 antagonist effect on oxaliplatin-induced acute sensory injury rat (PWT, von Frey); assay type: in vivo
# Procedure: If the animal withdrew or lifted the paw upon stimulation, then a hair with force immediately lower than that tested was used. If no response was observed, then a hair with force immediately higher was tested.
# CXCR1 receptor = target: T1, CXCR1 receptor (Homo sapiens, UniProt P25024); assay: Receptor binding assay ([125I] IL-8 SPA), CXCR1; set-up: expressed in transfected cells; host or cells: CHO cells (membranes); details: [125I] IL-8 binding, CHO-CXCR1 membranes; read-out: pIC50 against the CXCR1 receptor (converted)
# T1 sequence (P25024 1-350): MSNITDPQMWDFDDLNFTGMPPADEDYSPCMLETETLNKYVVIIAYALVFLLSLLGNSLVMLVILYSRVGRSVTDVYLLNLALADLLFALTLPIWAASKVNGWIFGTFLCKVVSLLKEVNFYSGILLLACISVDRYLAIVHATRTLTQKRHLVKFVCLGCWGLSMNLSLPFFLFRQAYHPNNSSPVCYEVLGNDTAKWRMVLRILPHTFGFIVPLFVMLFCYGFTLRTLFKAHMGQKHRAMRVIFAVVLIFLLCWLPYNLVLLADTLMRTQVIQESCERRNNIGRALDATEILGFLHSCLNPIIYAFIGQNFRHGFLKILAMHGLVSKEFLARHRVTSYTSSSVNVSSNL
# Procedure: [^125I] IL-8 (human recombinant, IM249) was obtained from Amersham Corp., Arlington Heights, Ill., with specific activity 2000 Ci/mmol. All other chemicals were of analytical grade. High levels of recombinant human CXCR1 and CXCR2 receptors were individually expressed in Chinese hamster ovary (CHO) cells as described in Holmes, et al., Science, 1991, 253, 1278, incorporated herein to the extent required to perform the present assay. The Chinese hamster ovary membranes were prepared according to Haour, et al., J. Biol. Chem., 249 pp 2195-2205 (1974), incorporated herein to the extent required to perform the present assay, except that the homogenization buffer was changed to 40 mM Tris-HCL pH 7.5 containing 1 mM MgSO4, 0.5 mM EDTA (ethylene-diaminetetra-acetic acid), 1 mM PMSF (α-toluene-sulphonyl fluoride), 2.5 mg/L Leupeptin and 0.1 mg/ml Aprotinin. Membrane protein concentration was determined using Bio-Rad Reagent using bovine serum albumin as a standard. All binding assays were conducted using Scintillation Proximity Assay (SPA assay) using wheatgerm agglutinin beads in a 96-well micro plate (optiplate 96, Packard) format. […] The 96-well plates were incubated on a shaking platform for 1 hour. At the end of the incubation the plates were spun for 5 min at 2000 RPM, and counted in a Top Count counter.
# CXCR2 receptor = target: T2, CXCR2 receptor (Homo sapiens, UniProt P25025); assay: Human whole blood assay version ii) (CD11b, GROα stimulated); assay type: cell-based; set-up: Assay d) measures the cellular functional activity to the native expressed human CXCR2 in whole blood; endogenous in cells; host or cells: human whole blood (neutrophils); details: 33 nM GROα, neutrophil CD11b, read-out: pIC50 against the CXCR2 receptor (converted)
# T2 sequence (P25025 1-360): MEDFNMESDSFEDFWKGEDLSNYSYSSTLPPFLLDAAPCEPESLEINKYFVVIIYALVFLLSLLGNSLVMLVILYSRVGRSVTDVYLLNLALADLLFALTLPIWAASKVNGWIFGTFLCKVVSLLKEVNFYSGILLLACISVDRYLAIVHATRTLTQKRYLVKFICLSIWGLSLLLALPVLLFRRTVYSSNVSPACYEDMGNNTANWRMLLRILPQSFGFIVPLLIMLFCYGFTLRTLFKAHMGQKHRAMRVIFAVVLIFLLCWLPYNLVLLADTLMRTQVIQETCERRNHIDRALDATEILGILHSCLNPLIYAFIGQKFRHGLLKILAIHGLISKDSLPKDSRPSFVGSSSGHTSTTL
# Procedure: Blood was withdrawn by venipuncture from consented adults and poured into a Sterilin tube containing an anti-coagulant Heparin (10 μL/mL of blood). All the test compounds were dissolved in DMSO to 4 mM and serial diluted across the plate, 1 in 3 to provide 10 point dose response curves. The compounds were then diluted 100 fold in -PBS [Phosphate buffered saline (without Calcium Chloride and Magnesium Chloride)] after which, 1 μL was dispensed in 96 U bottom Costar plates using an FX. This was done to reduce the final DMSO concentration to 0.25% and for compounds to be screened at 10 uM final assay concentration, after addition of blood.
# 10 μL of blood was transferred to the compound plate using a multi-channel pipette, gently tapped and incubated for 15 minutes, at 37° C. After 15 minutes, the stimulant GROα was diluted to 100 nM in 0.1% BSA (Albumin Bovine Serum)-PBS and 5 μL is dispensed across the whole plate for a final concentration of 33 nM. The plate was gently tapped and incubated further for 15 minutes at 37° C. […]
# Samples were run on a Becton and Dickinson (BD)-Acurri C6 Flow Cytometer using a HyperCyt sampling apparatus (IntelliCyt) with a flow rate 2 μL/sec. CD11 b upregulation is monitored in neutrophils and identified using a combination of both side scatter and CD16 expression.
smiles,measurement,setting,value
"O=C(Nc1ccc(Cl)c(S(=O)(=O)N2CCNCC2)c1O)Nc1cccc(F)c1Cl [Compound of Formula (A), 1-(4-chloro-2-hydroxy-3-(piperazin-1-ylsulfonyl)phenyl)-3-(2-chloro-3-fluorophenyl)urea]",decrease of basal proliferation,Caco-2 cell line,2.7±2.1%
same,oxaliplatin induced mechanical allodynia (PWT) vs oxaliplatin and vehicle group,"Sprague-Dawley rats; Day 3, 5, 20 and 50 mg/kg p.o. b.i.d. from Day -1",reduced the mechanical allodynia
same,oxaliplatin induced mechanical allodynia (PWT) vs oxaliplatin and vehicle group,"Sprague-Dawley rats; Day 7, 20 and 50 mg/kg p.o. b.i.d. only",robust reduction of the mechanical allodynia
same,IC50,CXCR1 receptor,3160 nM
"CN1CCC(C)(S(=O)(=O)c2c(Cl)ccc(NC(=O)Nc3cccc(F)c3Cl)c2O)CC1 [Compound of Formula (D), 1-(4-chloro-3-((1,4-dimethylpiperidin-4-yl)sulfonyl)-2-hydroxyphenyl)-3-(2-chloro-3-fluorophenyl)urea]",IC50,CXCR2 receptor,1580 nM
